Marks after values point to notes of the source that are not given here.
Assays:
[1] = system: B16-F1 melanoma; test: B16-F1 melanoma: PDT (verteporfin 1.0 mg/kg i.v., 100 J/cm^2) with or without intratumoral TITERMAX, then experimental pulmonary metastases; assay type: in vivo, C57BL/6 mice
Procedure: Male, C57BL/6 mice were obtained from Charles River Canada (Montreal, QC) at 6 to 8 weeks of age. The B 16-F0 and B 16-F1 melanoma cell lines were obtained from the […] (ATC™) (Manassas, Va.) and grown as cell cultures in Dulbecco's Modified Eagle Medium (DMEM) (Gibco) supplemented with 10% fetal bovine serum (Sigma). The cells adhered to tissue culture plates, were removed for passage with 0.25% trypsin with 1.0 mM ethylenediaminetetraacetic acid (EDTA) (Gibco), and were cryo-preserved in liquid nitrogen in DMEM plus 40% FBS and 10% DMSO. Mice were injected with 5×10^5 tumor cells in a total volume of 50 μL subcutaneously into the shaved, right flank. The tumor size was monitored daily by measuring the diameter with vernier calipers and were treated when the tumors reached approximately 5 mm in diameter. […] Subsequently the B16-F1 cell line was used for all experiments.
PDT treatment of mice bearing the B16-F1 tumor was performed as previously described for the M1 rhabdomyosarcoma mouse tumor (Richter et al., 1987; Richter et al., 1988; Richter et al., 1991). Each mouse was weighed, warmed under infrared light for less than 5 min to dilate the blood vessels, restrained, and injected intravenously (tail vein) with verteporfin at a concentration of 1.0 mg/kg body weight using a 28G needle. […] Following treatment, animals were monitored daily for tumor response. […]

[2] = system: Lewis Lung Carcinoma (LLC); test: In vitro lymphocyte proliferation assay (MTS) with lymph node cells of LLC-bearing mice treated with PDT or PDV; assay type: cell-based, C57B1/6 mice; settings: mean±standard deviation; lymph nodes 7-10 days after therapy; cultured with LLC antigen; PDV n=7 (ConA responders)
Description: In order to assess the potential usefulness of various adjuvants and treatment parameters in PDV, an in vitro lymphocyte proliferation assay was designed and employed in a murine tumor model. The assay measures tumour-specific lymphocyte (tumor immunity) responses from animals treated with PDT and PDT combined with adjuvant (PDV). This permits the rapid evaluation of various PDT/adjuvant administration protocols.
Female C57B1/6 mice are implanted subcutaneously on the shaved right flank with the Lewis Lung Carcinoma (LLC) cell line. When tumours develop to approximately 5 mm diameter animals are treated with PDT or PDV. PDT is performed by delivering 1.0 mg/kg verteporfin i.v. 30 min prior to illumination of 125 J/cm^2 delivered at 70 mW/cm^2 (treatment time=29 min, 4 sec). […] Animals are monitored for general health and re-growth of the tumour following therapy.
Seven to 10 days following therapy, animals are sacrificed and inguinal, axillary, cervical, and periaortic lymph nodes are aseptically removed. […] Following 3 to 5 days of culture, the degree of proliferation is assessed using 3-(4,5-dimethylthiazol-2-yl)-5-(3-carboxymethoxyphenyl)-2-(4-sulfophenyl)-2H-tetrazolium, inner salt (Owen's reagent, MTS, from PROMEGA™), a variation of the MTT assay which produces a soluble formazan product which absorbs light at 490 nm. […]

[3] = system: M1 (rhabdomyosarcoma); test: Reimplantation of M1 tumor on Day 20 into tumor-free mice treated with PDT (verteporfin 1.0 mg/kg i.v. + light) with or without DETOX B-SE; assay type: in vivo; settings: for Survival (tumour less than 1 cm long, not euthanized) / Tumor-take Rate: reimplanted Day 20
Description: The thirty mice in treatment group 7 were implanted at the same time as those reimplanted on Groups 1-6 to provide a control for the rate of tumor-take. Ten mice were implanted on each of three separate batches of 10 mice to match the days of reimplantation of 1-6.
High dose PDT gave approximately 60% fewer tumors (n=9), and this percentage was not changed by the addition of high dose immunoadjuvant (n=5). The lower dose of immunoadjuvant combined with high dose PDT gave more protection against rechallenge (20% take rate, n=6).

[4] = Optimal PDT (75 J/cm^2), n = 9, day 23 post-PDT
[5] = Optimal PDT (75 J/cm^2), n = 9, day 26 post-PDT
[6] = Optimal PDT (75 J/cm^2), n = 9, day 29 post-PDT
[7] = Optimal PDT (75 J/cm^2), n = 9, day 32 post-PDT
[8] = Optimal PDT (75 J/cm^2), n = 9, day 35 post-PDT
[9] = Optimal PDT (75 J/cm^2), n = 9, day 38 post-PDT
[10] = Optimal PDT (75 J/cm^2), n = 9, day 41 post-PDT
[11] = Optimal PDT (75 J/cm^2), n = 9, day 44 post-PDT
[12] = Optimal PDT (75 J/cm^2), n = 9, day 47 post-PDT
[13] = Optimal PDT (75 J/cm^2), n = 9, day 50 post-PDT
[14] = Sub-optimal PDT (25 J/cm^2), n = 7, day 23 post-PDT
[15] = Sub-optimal PDT (25 J/cm^2), n = 7, day 26 post-PDT
[16] = Sub-optimal PDT (25 J/cm^2), n = 7, day 29 post-PDT
[17] = Sub-optimal PDT (25 J/cm^2), n = 7, day 32 post-PDT
[18] = Sub-optimal PDT (25 J/cm^2), n = 7, day 35 post-PDT
[19] = Sub-optimal PDT (25 J/cm^2), n = 7, day 38 post-PDT
[20] = Sub-optimal PDT (25 J/cm^2), n = 7, day 41 post-PDT
[21] = Sub-optimal PDT (25 J/cm^2), n = 7, day 44 post-PDT
[22] = Sub-optimal PDT (25 J/cm^2), n = 7, day 47 post-PDT
[23] = Sub-optimal PDT (25 J/cm^2), n = 7, day 50 post-PDT

benzoporphyrin derivative monoacid ring A [verteporfin]
animals that required repeated treatment to complete the tumor cure ([1]; of five animals per group, subcutaneous B16-F1 tumor): 3 | lung colonies ([1]; one of the 5 animals treated with PDT alone, 14 days after i.v. tumor cells): 6 | lymphocyte proliferation, percent of lymphocytes without antigen [2]: 108±11% | fewer tumors upon reimplantation than in untreated naïve mice ([3]; High dose PDT (75 J/cm^2), n=9): approximately 60% | protection against rechallenge relative to controls ([3]; Low dose PDT alone (25 J/cm^2), superior to low dose PDT combined with low-dose adjuvant): substantial protection | Survival (tumour less than 1 cm long, not euthanized) [3, 4]: 100% | Tumor-take Rate [3, 4]: 0% | Survival (tumour less than 1 cm long, not euthanized) [3, 5]: 100% | Tumor-take Rate [3, 5]: 44^d % | Survival (tumour less than 1 cm long, not euthanized) [3, 6]: 100% | Tumor-take Rate [3, 6]: 44^c % | Survival (tumour less than 1 cm long, not euthanized) [3, 7]: 100% | Tumor-take Rate [3, 7]: 44^c % | Survival (tumour less than 1 cm long, not euthanized) [3, 8]: 89^c % | Tumor-take Rate [3, 8]: 44^c % | Survival (tumour less than 1 cm long, not euthanized) [3, 9]: 89% | Tumor-take Rate [3, 9]: 44^c % | Survival (tumour less than 1 cm long, not euthanized) [3, 10]: 89% | Tumor-take Rate [3, 10]: 44^c % | Survival (tumour less than 1 cm long, not euthanized) [3, 11]: 78% | Tumor-take Rate [3, 11]: 44^c % | Survival (tumour less than 1 cm long, not euthanized) [3, 12]: 56% | Tumor-take Rate [3, 12]: 44^c % | Survival (tumour less than 1 cm long, not euthanized) [3, 13]: 56% | Tumor-take Rate [3, 13]: 44^c % | Survival (tumour less than 1 cm long, not euthanized) [3, 14]: 100% | Tumor-take Rate [3, 14]: 0% | Survival (tumour less than 1 cm long, not euthanized) [3, 15]: 100% | Tumor-take Rate [3, 15]: 43% | Survival (tumour less than 1 cm long, not euthanized) [3, 16]: 100% | Tumor-take Rate [3, 16]: 43% | Survival (tumour less than 1 cm long, not euthanized) [3, 17]: 100% | Tumor-take Rate [3, 17]: 43% | Survival (tumour less than 1 cm long, not euthanized) [3, 18]: 100% | Tumor-take Rate [3, 18]: 43% | Survival (tumour less than 1 cm long, not euthanized) [3, 19]: 100% | Tumor-take Rate [3, 19]: 43% | Survival (tumour less than 1 cm long, not euthanized) [3, 20]: 100% | Tumor-take Rate [3, 20]: 29% | Survival (tumour less than 1 cm long, not euthanized) [3, 21]: 86% | Tumor-take Rate [3, 21]: 29% | Survival (tumour less than 1 cm long, not euthanized) [3, 22]: 86% | Tumor-take Rate [3, 22]: 29% | Survival (tumour less than 1 cm long, not euthanized) [3, 23]: 86% | Tumor-take Rate [3, 23]: 29%

From patent US7850981B2, “Immuno-adjuvant PDT treatment of metastatic tumors” (QLT, Inc., priority 1999, dated 2010)
